Key:
[1] = tested on: adenylate kinase; settings: erythrocyte AK; agent used alone (AMP without fluoride, fluoride without AMP); FIG. 1, 2
Experimental: Normal and abnormal sera (from myocardial infarct) and the haemolysate from human erythrocytes were used as sources of CK and of AK.
The AK activity was determined according to the method by Szasz et al. (Clin. Chem., 22, 1806, (1976)). […] A spectrophotometer, Beckman-25 with basin-supporting cradle and thermostat, was used. The reaction temperature for determining both AK and CK was 37° C.

[2] = biological target: T1, erythrocyte AK (Homo sapiens, UniProt P00568); assay: CK determination in normal sera without and with added erythrocyte AK; type: biochemical; settings: AMP only at 5 millimols per liter
T1 construct: the haemolysate from human erythrocytes; from tissue; host or cells: human erythrocytes (haemolysate)
T1 sequence (P00568 1-194): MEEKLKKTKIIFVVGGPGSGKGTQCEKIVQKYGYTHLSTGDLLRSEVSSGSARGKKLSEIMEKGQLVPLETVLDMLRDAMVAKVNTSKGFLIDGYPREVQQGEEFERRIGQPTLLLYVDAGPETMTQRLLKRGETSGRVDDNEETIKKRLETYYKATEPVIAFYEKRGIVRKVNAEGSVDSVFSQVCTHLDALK
Source text: Such samples have been analyzed with the method described herein and with that which uses AMP at 5 millimols per liter.

[3] = tested on: creatine kinase from serum; assay: Creatine kinase (CK) activity from serum, coupled HK/G-6-PD reaction at 340 nm; type: biochemical, human; settings: FIG. 3
Source text: Each value represent the average of five independent readings.
All the CK activities were corrected by allowing for the AK activity.
The same samples were used both for AMP and the fluoride. The ordinates report the percentage relative to the inhibition of the creatine kinase and the abscissae indicate the concentrations of AMP, or fluoride, in millimols per liter, in FIG. 3.

[4] = tested on: CK; settings: AMP at 5 to 10 times the ADP concentration; cited from earlier work

With `Nc1ncnc2c1ncn2[C@@H]1O[C@H](COP(=O)(O)O)[C@@H](O)[C@H]1O` [AMP, adenosine-5'-monophosphate] as the compound, how does the “concentration at which 95% of inhibition of AK is attained” value [1] read?
Its value is “more than 20 millimols per liter”.

What about the “excess of CK values of samples with erythrocyte AK over normal samples” value [2] of the same compound?
Its value is “about 50%”.

What about the “difference in CK activity between normal samples and samples with added erythrocyte AK” value ([2]; P less than 0.01) of the same compound?
The value was “most significant difference”.

What about the “inhibition of CK activity” value ([3]; AMP at 20 millimols per liter) of the same compound?
The value was “more than 10%”.

What about the “inhibition of the activity of the CK” value [4] of the same compound?
The value was “slightly inhibits”.

For `[F-].[K+]` [fluoride, potassium fluoride], which “concentration at which 95% of inhibition of AK is attained” value [1] is on record?
The value was 25 millimols per liter.

And the “inhibition of CK activity” value ([3]; fluoride at 25 millimols per liter)?
Its value is ≥ 4%.

Reference: patent publication US4220714A, “Composition for inhibiting adenylate-kinase and its use” (priority 1977, dated 1980)
